{"source": "patent US20180318338A1", "about": "“METHODS AND COMPOSITIONS FOR THE PREVENTION OF SUICIDE, HOMICIDE AND SELF-HARMING BEHAVIORS” (THE MCLEAN HOSPITAL CORPORATION, priority 2015, published 2018)", "origin": "cited, not measured here", "conditions": "in vivo"}
{"smiles": "[Xe]", "note": "[xenon]", "values": [{"measurement": "blood level of xenon", "result": "100 to 200", "unit": "nL xenon/mL blood"}]}
